US20260070921A1, “COMPOUND, ENDOPLASMIC RETICULUM STRESS INHIBITOR, PHARMACEUTICAL PRODUCT, OPHTHALMIC AGENT, EYE DROPS, COMPOSITION, AND METHOD FOR PRODUCING COMPOUND” (KYOTO UNIVERSITY, priority 2022, published 2026)

Columns and labels:
[1] = Confocal microscopy of Nile red-stained assemblies; format: physicochemical; settings: cell culture medium, prolonged incubation (>5 hr)
Experimental: Doping with the environmentally sensitive dyes, Nile red and 9-(2,2-dicyanovinyl)julolidine (DCVJ), enabled detection of assembly formation by fluorescence spectroscopy and confocal microscopy. The relative amount of self-organization of compound 1 was quantified using DCVJ to form a DMEM-normalized dose-organization curve (FIG. 24). Fitting with a sigmoid curve gave an apparent half-maximal assembly concentration (AC50) of 29.7 μM for the molecules of compound 1. […] In confocal microscopy, assemblies of compound 1 stained with Nile red were readily detectable in PBS (pH of 7.4). In the cell culture medium, assemblies of compound 1 stained with Nile red were initially not visible due to the small particle size, but prolonged incubation (>5 hr) led to the formation of larger detectable assemblies (>1 μm in diameter).

Atg5, and Atg12 = experiment: Western blotting of sclera after myopia induction, Atg5/Atg12; format: in vivo, mice; settings: eye drop 3 weeks
Experimental: (§1) A −30 diopter (unit of refractive index: D) lens was attached to the right eye of 3-week-old male C57BL6J mice, while only a lens frame was attached to the left eye, which served as a control eye. The lenses were worn for three weeks, and the refractive index and axial length of eyes were measured before and after attachment of the lenses. Concurrently with myopia induction, an eye drop, which is a 0.025 solution of X441A in PBS, was administered by instillation once a day every day. PBS was administered by eye drop to the control group (group administered with PBS). After 3 weeks of myopia induction and eye drop administration, the eyeballs were enucleated from the mice, and the sclera was isolated. Then, western blotting was performed to analyze the expression levels of p62, Atg5, and Atg12 in each group.
(§2) After 3 weeks of myopia induction and eye drop administration, the eyeballs were enucleated from the mice, and the sclera was isolated. Then, western blotting was performed to analyze the expression levels of p62, Atg5, and Atg12 in the group administered with X441A and the group administered with PBS.

[2] = test system: pIRE1/IRE and p-eIF2/eIF2; experiment: Endoplasmic reticulum stress pathway activation in myopic sclera; format: in vivo, mice; settings: eye drop 3 weeks
Description: Thus, the attachment of a minus lens may enhance autophagy, and autophagy was not shown to be complete in the control group. […] This is thought to be the mechanism by which myopia progression is inhibited.

p62 = experiment: Western blotting of sclera after myopia induction, p62; format: in vivo, mice; settings: eye drop 3 weeks
Experimental: as §1, §2

NS(=O)(=O)c1ccc(Nc2ccn3c(n2)nc(=O)c2sc4cc(F)ccc4c23)cc1 [compound 1]
Diameter of detectable assemblies [1]: > 1 μm
Increase in expression of At5/Atg12 (Atg5, and Atg12): enhanced regardless of the administration of X441A
Activation of the endoplasmic reticulum stress pathway caused by myopia induction [2]: did not occur
Expression level of p62 (p62): decreased
